Test results reported in patent publication US20220144879A1, “FLUORESCENT PROBE FOR DETECTING CANCER” (The University of Tokyo, priority 2019, published 2022).

Legend:
[1] = system: breast cancer and benign tumor tissues (clinical mammary gland specimen); assay: Two-color imaging with HMRef-α-D-Man and GGT probe in combination (FIG. 9); design: species or system human; settings: 50 μM each probe; 30 minutes after administration of both probes
Experimental: Two-color imaging was performed under the following conditions using the glycosidase-reactive fluorescent probe 5 (HMRef-α-D-Man) (concentration: 50 μM) and a GGT probe gGlu-2-OMeSiR600 (concentration: 50 μM) in combination.
200 μL of a PBS solution of the fluorescent probes at the above concentrations was added to each well in which a clinical mammary gland specimen was placed, and fluorescence images at 1, 3, 5, 10, 20, and 30 minutes were acquired at 540 nm and 640 nm using the Maestro in vivo imaging system (PerkinElmer Inc.). Each fluorescence intensity value was quantified and compared by taking Regions Of Interest (ROIs) on Maestro software. For the glycosidase-reactive fluorescent probe 5, Ex/Em=465-30 nm/515 nm long-pass was used as the filter setting. For the GGT probe, Ex/Em=570-40 nm/610 nm long-pass was used.
The exposure time (in milliseconds) of the fluorescence image is indicated at the bottom of each image.

[2] = system: intact glycosidase activities in normal breast, IDC (breast cancer), and FA (benign tumor) tissues; assay: Screening of glycosidase-reactive fluorescent probes for detecting breast cancer and benignancy (fluorescence increase in clinical mammary gland specimens); design: species or system human; settings: probe 50 μM in PBS, increase from 1 minute to 30 minutes after addition, 540 nm
Experimental: Using the 12 types of glycosidase-reactive fluorescent probes synthesized above (refer to FIG. 1), screening for the detection of breast cancer and benignancy was performed in the following procedure.
200 μL of a PBS solution of each fluorescent probe at a concentration of 50 μM was added to each well in which a clinical mammary gland specimen was placed, and fluorescence images at 1, 3, 5, 10, 20, and 30 minutes were acquired at 540 nm using a Maestro in vivo imaging system (PerkinElmer Inc.). Each fluorescence intensity value was quantified and compared by taking Regions Of Interest (ROIs) on Maestro software. Ex/Em=465−30 nm/515 nm long-pass was used as the filter setting.
The increase in fluorescence indicates increase after the lapse of 1 minute to 30 minutes since the addition of the fluorescent probe. Each dot represents, from left to right, increase in fluorescence in normal breast, IDC, DCIS, and FA tissues.

Structure (SMILES) | red fluorescence (640 nm) [1] | increase in fluorescence [2]
COc1ccccc1C1=C2C=CC(=N)C=C2[Si](C)(C)c2cc(NC(=O)CC[C@H](N)C(=O)O)ccc21 [gGlu-2OME-SiR600, gGlu-2-OMeSiR600] | emitted red fluorescence in both breast cancer (malignant tumor) and the benign tumor | –
COc1ccccc1C1=C2C=CC(=N)C=C2[Si](C)(C)c2cc(NC(=O)CC[C@H](N)C(=O)O)ccc21 [compound 7] | – | increase in fluorescence in both the breast cancer and FA (benign tumor) tissues
